In this test the target is Lpg2603 10-C (Legionella pneumophila, UniProt Q5ZSB6). The experiment in a line: biochemical.
Sequence of Lpg2603 10-C (Q5ZSB6 10-434 limits assumed): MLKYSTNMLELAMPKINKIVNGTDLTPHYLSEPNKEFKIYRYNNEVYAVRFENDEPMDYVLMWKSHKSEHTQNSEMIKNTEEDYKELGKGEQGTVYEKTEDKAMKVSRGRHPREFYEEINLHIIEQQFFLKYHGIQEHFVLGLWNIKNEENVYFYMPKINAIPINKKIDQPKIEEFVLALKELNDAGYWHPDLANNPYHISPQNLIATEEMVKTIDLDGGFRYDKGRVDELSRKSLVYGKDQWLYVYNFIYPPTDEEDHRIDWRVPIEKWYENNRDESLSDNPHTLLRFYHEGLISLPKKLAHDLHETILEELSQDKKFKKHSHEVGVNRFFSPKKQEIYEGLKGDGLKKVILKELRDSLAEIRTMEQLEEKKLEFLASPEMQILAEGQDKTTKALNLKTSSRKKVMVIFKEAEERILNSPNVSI

Regarding `O=P(O)(O)O[C@H]1[C@H](OP(=O)(O)O)[C@@H](OP(=O)(O)O)[C@H](OP(=O)(O)O)[C@@H](OP(=O)(O)O)[C@H]1OP(=O)(O)O` [inositol hexakisphosphate], the dissociation constant (Kd) was approximately 315 µM.
